The first experiment has as its system OF1 mice. The experiment is described as follows: Maximal electroshock test (MES Test). The following applies: Mus musculus, po; 50 mg/kg, p.o., pre-treatment time −0.5 h (footnote d); read-out: %-Protection. Format: in vivo. A digest of the protocol: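 Compound given p.o. (typically 50 mg/kg) 1 h before tonic-clonic convulsions were induced via temporal electrodes (50 Hz, 18 mA, 0.2 s); seizure lasting 3 s or less counted as protection. Read-out is percent protected of five mice per condition; ED50 calculated, blood exposure sampled after shock.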
On the technique in general: The maximal electroshock test induces tonic seizures with an electrical stimulus.
For the molecule `CCCC(=O)N(n1c(=O)[nH]c2cc(C(F)(F)F)c([C@H]3CCCO3)cc2c1=O)S(C)(=O)=O` [Example 10.03], the responders at 50 mg/kg was 60%.

Still in this experiment, the particulars now being: Mus musculus, po; 50 mg/kg, p.o., pre-treatment time −1 h; read-out: %-Protection.
On to `CCC(=O)N(n1c(=O)c2cc(-c3ccnn3C)c(C(C)C)cc2n(C(=O)CC)c1=O)S(C)(=O)=O` [Example 3.25, N-[7-Isopropyl-6-(2-methyl-2H-pyrazol-3-yl)-2,4-dioxo-1-propionyl-1,4-dihydro-2H-quinazolin-3-yl]-N-propionyl-methanesulfonamide], for which the responders at 50 mg/kg was determined as 100%.
`CCOC(=O)N(n1c(=O)[nH]c2cc(C(F)(F)F)c(-n3cccc3)cc2c1=O)S(C)(=O)=O` [Example 8.05, (2,4-Dioxo-6-pyrrol-1-yl-7-trifluoromethyl-1,4-dihydro-2H-quinazolin-3-yl)-methanesulfonyl-carbamic acid ethyl ester]: the responders at 50 mg/kg was 60%.
With `CCC(OC)c1cc2c(=O)n(N(C(=O)OC(C)C)S(C)(=O)=O)c(=O)[nH]c2cc1C(F)(F)F` (stereo not shown) [Example 11.14, Methanesulfonyl-[6-(1-methoxy-propyl)-2,4-dioxo-7-trifluoromethyl-1,4-dihydro-2H-quinazolin-3-yl]-carbamic acid isopropyl ester], the responders at 50 mg/kg worked out at 60%.
On the same count and under the same terms, for `CC(=O)N(n1c(=O)[nH]c2cc(C(F)(F)F)c(-n3ccnc3)cc2c1=O)S(C)(=O)=O` [Example 4.03, N-Acetyl-N-(6-imidazol-1-yl-2,4-dioxo-7-trifluoromethyl-1,4-dihydro-2H-quinazolin-3-yl)-methanesulfonamide] the value was 40%; for `CCCCCC(=O)N(n1c(=O)[nH]c2cc(C(F)(F)F)c(-n3ccnc3)cc2c1=O)S(C)(=O)=O` [Example 4.08, N-Hexanoyl-N-(6-imidazol-1-yl-2,4-dioxo-7-trifluoromethyl-1,4-dihydro-2H-quinazolin-3-yl)-methanesulfonamide], 20%; for `CCCC(=O)N(n1c(=O)[nH]c2cc(C(F)(F)F)c(-c3ccnn3C(C)C)cc2c1=O)S(C)(=O)=O` [Example 5.03, N-Butyryl-N-[6-(2-isopropyl-2H-pyrazol-3-yl)-2,4-dioxo-7-trifluoromethyl-1,4-dihydro-2H-quinazolin-3-yl]-methanesulfonamide], 40%.
Take `CCCC(=O)N(n1c(=O)[nH]c2cc(C(F)(F)F)c([C@H]3CCCO3)cc2c1=O)S(C)(=O)=O` [Example 10.03]: the responders at 50 mg/kg turned out to be 100%.
In the case of `CCCC(=O)N(n1c(=O)c2cc(-c3ccnn3C)c(C(C)C)cc2n(C(=O)CCC)c1=O)S(C)(=O)=O` [Example 3.26, N-Butyryl-N-[1-butyryl-7-isopropyl-6-(2-methyl-2H-pyrazol-3-yl)-2,4-dioxo-1,4-dihydro-2H-quinazolin-3-yl]-methanesulfonamide], the responders at 50 mg/kg worked out at 80%.
On the same count and under the same terms, then `CCCOC(=O)N(n1c(=O)[nH]c2cc(CC)c(-c3ccnn3C)cc2c1=O)S(C)(=O)=O` [Example 2.06, Methanesulfonyl-[7-ethyl-6-(2-methyl-2H-pyrazol-3-yl)-2,4-dioxo-1,4-dihydro-2H-quinazolin-3-yl]-carbamic acid propyl ester], with 60%; and `CCCCOC(=O)N(n1c(=O)[nH]c2cc(C(F)(F)F)c([C@H]3CCCO3)cc2c1=O)S(C)(=O)=O` [Example 10.06, Methanesulfonyl-N—((R)-2,4-dioxo-6-tetrahydro-furan-2-yl-7-trifluoromethyl-1,4-dihydro-2H-quinazolin-3-yl)-carbamic acid butyl ester], with 40%.
In the case of `CCCC(=O)N(n1c(=O)[nH]c2cc(C(F)(F)F)c(C(CC)OC)cc2c1=O)S(C)(=O)=O` (stereo not shown) [Example 11.07, N-Butyryl-N-[6-(1-methoxy-propyl)-2,4-dioxo-7-trifluoromethyl-1,4-dihydro-2H-quinazolin-3-yl]-methanesulfonamide], the responders at 50 mg/kg was 100%.
Regarding `CCOC(=O)N(n1c(=O)[nH]c2cc(C(F)(F)F)c(-c3ccnn3C(C)C)cc2c1=O)S(C)(=O)=O` [Example 5.06, [6-(2-Isopropyl-2H-pyrazol-3-yl)-2,4-dioxo-7-trifluoromethyl-1,4-dihydro-2H-quinazolin-3-yl]-methanesulfonyl-carbamic acid ethyl ester], the responders at 50 mg/kg turned out to be 60%.
As to `CCC(O)c1cc2c(=O)n(N(C(=O)C(C)C)S(C)(=O)=O)c(=O)[nH]c2cc1C(F)(F)F` (stereo not shown) [Example 12.04, N-[6-(1-Hydroxy-propyl)-2,4-dioxo-7-trifluoromethyl-1,4-dihydro-2H-quinazolin-3-yl]-N-isobutyryl-methanesulfonamide], the responders at 50 mg/kg worked out at 40%.
For `CC(C)COC(=O)N(n1c(=O)[nH]c2cc(C(F)(F)F)c([C@H]3CCCO3)cc2c1=O)S(C)(=O)=O` [Example 10.08, Methanesulfonyl-N—((R)-2,4-dioxo-6-tetrahydro-furan-2-yl-7-trifluoromethyl-1,4-dihydro-2H-quinazolin-3-yl)-carbamic acid isobutyl ester], the responders at 50 mg/kg turned out to be 20%.
On the same count and under the same terms, then `CCOC(=O)N(n1c(=O)[nH]c2cc(C(C)C)c(-c3ccnn3C)cc2c1=O)S(C)(=O)=O` [Example 3.19, [7-Isopropyl-6-(2-methyl-2H-pyrazol-3-yl)-2,4-dioxo-1,4-dihydro-2H-quinazolin-3-yl]-methanesulfonyl-carbamic acid ethyl ester], with 100%; and `CC(C)c1cc2[nH]c(=O)n(N(C(=O)CN3CCOCC3)S(C)(=O)=O)c(=O)c2cc1-c1ccnn1C` [Example 3.31, N-[7-Isopropyl-6-(2-methyl-2H-pyrazol-3-yl)-2,4-dioxo-1,4-dihydro-2H-quinazolin-3-yl]-N-(2-morpholin-4-yl-acetyl)-methanesulfonamide], with 100%.
The same measure, in the same setting: then `CCCCOC(=O)N(n1c(=O)c2cc(-c3ccnn3C)c(C(C)C)cc2n(C(=O)OCCCC)c1=O)S(C)(=O)=O` [Example 3.35, 3-(Butoxycarbonyl-methanesulfonyl-amino)-7-isopropyl-6-(2-methyl-2H-pyrazol-3-yl)-2,4-dioxo-3,4-dihydro-2H-quinazoline-1-carboxylic acid butyl ester], with 80%; and `CCC(=O)N(n1c(=O)[nH]c2cc(C(F)(F)F)c(-c3ccnn3CC)cc2c1=O)S(C)(=O)=O` [Example 15.02, N-[6-(2-Ethyl-2H-pyrazol-3-yl)-2,4-dioxo-7-trifluoromethyl-1,4-dihydro-2H-quinazolin-3-yl]-N-propionyl-methanesulfonamide], with 20%; and `CCOC(=O)N(n1c(=O)[nH]c2cc(CC)c(-c3ccnn3C)cc2c1=O)S(C)(=O)=O` [Example 2.08, Methanesulfonyl-[7-ethyl-6-(2-methyl-2H-pyrazol-3-yl)-2,4-dioxo-1,4-dihydro-2H-quinazolin-3-yl]-carbamic acid ethyl ester], with 80%.

Still in this experiment, the particulars now being: Mus musculus, po; Dose: 15 mg/kg, p.o. (footnote c), pre-treatment time −1 h; read-out: %-Protection.
As to `CCOC(=O)CC(=O)N(n1c(=O)[nH]c2cc(C(C)C)c(-c3ccnn3C)cc2c1=O)S(C)(=O)=O` [Example 3.07, 3-{[7-Isopropyl-6-(2-methyl-2H-pyrazol-3-yl)-2,4-dioxo-1,4-dihydro-2H-quinazolin-3-yl]-methanesulfonyl-amino}-3-oxo-propionic acid ethyl ester], the responders at 15 mg/kg is 80%.

Still in this experiment, the particulars now being: Mus musculus, po; Dose: 15 mg/kg, p.o., pre-treatment time −2 h (footnotes a,c); read-out: %-Protection.
Take `CC(=O)OC(C)(C)C(=O)N(n1c(=O)c2cc(-c3ccnn3C)c(C(C)C)cc2n(C(=O)C(C)(C)OC(C)=O)c1=O)S(C)(=O)=O` [Example 3.11, Acetic acid 2-[3-[(2-acetoxy-2-methyl-propionyl)-methanesulfonyl-amino]-7-isopropyl-6-(2-methyl-2H-pyrazol-3-yl)-2,4-dioxo-3,4-dihydro-2H-quinazolin-1-yl]-1,1-dimethyl-2-oxo-ethyl ester]: the responders at 15 mg/kg was found to be 40%.

The same experiment, now with this note: Mus musculus, po; Dose: 25 mg/kg, p.o. (footnote b), pre-treatment time −1 h; read-out: %-Protection.
Regarding `CCCC(=O)N(n1c(=O)[nH]c2cc(CC)c(-c3ccnn3C)cc2c1=O)S(C)(=O)=O` [Example 2.02, N-Butyryl-N-[7-ethyl-6-(2-methyl-2H-pyrazol-3-yl)-2,4-dioxo-1,4-dihydro-2H-quinazolin-3-yl]-methanesulfonamide], the responders at 25 mg/kg came to 100%.

The experiment is the same for the next values; noted with them: Mus musculus; dose of up to 50 mg/kg, p.o., 1 hour prior to induction of convulsions; read-out: %-Protection.
As for `CC(=O)OCC(=O)N(n1c(=O)[nH]c2cc(C(F)(F)F)c(-c3ccnn3C(C)C)cc2c1=O)S(C)(=O)=O` [Acetic acid 2-{[6-(2-isopropyl-2H-pyrazol-3-yl)-2,4-dioxo-7-trifluoromethyl-1,4-dihydro-2H-quinazolin-3-yl]-methanesulfonyl-amino}-2-oxo-ethyl ester], the responders at 50 mg/kg was 0%.
Regarding `CCn1nccc1-c1cc2c(=O)n(N(C(=O)OC)S(C)(=O)=O)c(=O)[nH]c2cc1C(F)F` [[7-Difluoromethyl-6-(2-ethyl-2H-pyrazol-3-yl)-2,4-dioxo-1,4-dihydro-2H-quinazolin-3-yl]-methanesulfonyl-carbamic acid methyl ester], the responders at 50 mg/kg stood at 0%.
Same read-out and setting: then `CCc1cc2[nH]c(=O)n(N(C(C)=O)S(C)(=O)=O)c(=O)c2cc1-c1ccnn1CC` [N-Acetyl-N-[7-ethyl-6-(2-ethyl-2H-pyrazol-3-yl)-2,4-dioxo-1,4-dihydro-2H-quinazolin-3-yl]-methanesulfonamide], with 0%.
Consider `CCCCC(=O)N(n1c(=O)[nH]c2cc(C(F)(F)F)c(-c3ccnn3C(C)C)cc2c1=O)S(C)(=O)=O` [N-[6-(2-Isopropyl-2H-pyrazol-3-yl)-2,4-dioxo-7-trifluoromethyl-1,4-dihydro-2H-quinazolin-3-yl]-N-pentanoyl-methanesulfonamide], for which the responders at 50 mg/kg amounted to 0%.
Take `CCCC(=O)N(n1c(=O)[nH]c2cc(CC)c(-c3ccnn3CC)cc2c1=O)S(C)(=O)=O` [N-Butyryl-N-[7-ethyl-6-(2-ethyl-2H-pyrazol-3-yl)-2,4-dioxo-1,4-dihydro-2H-quinazolin-3-yl]-methanesulfonamide]: the responders at 50 mg/kg worked out at 0%.

Values taken from patent US20130053381A1, “2,4-DIOXO-1,4-DIHYDRO-2H-QUINAZOLIN-3-YL-SULFONAMIDE DERIVATIVES” (NOVARTIS AG, priority 2010, published 2013).
